Earlier results, collected in PMC10366102, “Dose escalation and expansion cohorts in patients with advanced breast cancer in a Phase I study of the CDK7-inhibitor samuraciclib” (Nature Communications, 2023).

Legend:
[1] = test system: PIK3CA-mutated HR+ advanced breast cancer; set-up: method as in PMID 33794206; details: PIK3CA mutation, post CDK4/6 inhibitor; cited from earlier work
[2] = test system: HR+ metastatic breast cancer; set-up: method as in PMID 33230905; details: after CDK4/6 inhibitor; cited from earlier work

SMILES | Median PFS [1] | Median duration of treatment [2]
Cc1nc(NC(=O)N2CCC[C@H]2C(N)=O)sc1-c1ccnc(C(C)(C)C(F)(F)F)c1 [Alpelisib] | 7.3 months | –
CO[C@H]1C[C@@H]2CC[C@@H](C)[C@@](O)(O2)C(=O)C(=O)N2CCCC[C@H]2C(=O)O[C@H]([C@H](C)C[C@@H]2CC[C@@H](OCCO)[C@H](OC)C2)CC(=O)[C@H](C)/C=C(\C)[C@@H](O)[C@@H](OC)C(=O)[C@H](C)C[C@H](C)/C=C/C=C/C=C/1C [everolimus] | – | 3.6 months
